The results in this text go back to patent US9487529B2, “Macrocyclic compounds as ALK, FAK and JAK2 inhibitors” (Cephalon, Inc., priority 2011, dated 2016).

Molecules are shown by their SMILES. Counter-ions that a name gives are not always drawn. Like-named read-outs stand apart in the source and are kept apart here.

The conditions of data set [1]: cc_pd bond, Pd(OAc)2 / tri-o-tolylphosphine, Et3N, CH3CN, 120.0 °C.
A further data set deals with T1, recombinant human FAK (Homo sapiens, UniProt Q05397).
T1 construct: purchased Invitrogen PV3832; host or cells: baculovirus expression system
T1 sequence (Q05397 whole entry): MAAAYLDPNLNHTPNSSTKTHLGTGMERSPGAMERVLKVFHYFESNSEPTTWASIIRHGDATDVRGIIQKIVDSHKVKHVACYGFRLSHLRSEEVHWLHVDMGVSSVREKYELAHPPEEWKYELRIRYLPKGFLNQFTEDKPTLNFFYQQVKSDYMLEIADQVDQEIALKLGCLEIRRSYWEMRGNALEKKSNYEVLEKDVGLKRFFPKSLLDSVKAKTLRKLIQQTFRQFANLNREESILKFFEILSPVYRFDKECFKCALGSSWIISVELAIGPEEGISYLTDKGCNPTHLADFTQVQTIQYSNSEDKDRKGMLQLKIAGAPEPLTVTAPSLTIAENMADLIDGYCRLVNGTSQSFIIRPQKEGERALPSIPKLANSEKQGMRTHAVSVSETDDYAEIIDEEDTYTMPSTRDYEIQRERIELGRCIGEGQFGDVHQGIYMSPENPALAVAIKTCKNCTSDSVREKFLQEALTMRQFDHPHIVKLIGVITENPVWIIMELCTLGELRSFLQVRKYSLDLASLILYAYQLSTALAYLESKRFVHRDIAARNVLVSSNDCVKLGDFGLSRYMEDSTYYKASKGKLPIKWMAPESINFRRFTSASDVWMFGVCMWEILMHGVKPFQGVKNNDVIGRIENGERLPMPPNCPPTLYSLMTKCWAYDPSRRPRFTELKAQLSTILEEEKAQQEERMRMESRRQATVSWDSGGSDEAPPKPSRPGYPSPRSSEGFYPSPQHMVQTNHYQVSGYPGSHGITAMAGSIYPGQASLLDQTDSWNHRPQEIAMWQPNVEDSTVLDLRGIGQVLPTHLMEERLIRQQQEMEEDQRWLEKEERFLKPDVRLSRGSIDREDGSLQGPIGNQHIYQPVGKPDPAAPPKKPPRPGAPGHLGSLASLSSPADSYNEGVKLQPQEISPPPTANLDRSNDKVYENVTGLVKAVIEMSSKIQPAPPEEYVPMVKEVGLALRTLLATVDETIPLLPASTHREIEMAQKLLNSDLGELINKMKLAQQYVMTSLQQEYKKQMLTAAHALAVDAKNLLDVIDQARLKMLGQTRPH
Briefly: FAK Enzyme Assay (TRF detection). The class given is biochemical. As to conditions: 10 μM ATP. On the procedure:
Example compounds were tested for their ability to inhibit the kinase activity of baculovirus-expressed recombinant human FAK using the TRF detection system as described above for JAK2. IC50 runs were performed in 96-well Costar high binding plates (#3922). The plates were coated first with 100 μL/well of 10 μg/mL neutravidin in TBS at 37° C. for 2 h, followed by 100 μL/well of 1 μg/mL 15-mer peptide substrate (biotinyl-amino-hexanoyl-EQEDEPEGDYFEWLE-amide) at 37° C. for another hour. The FAK assay mixture (total volume=100 μL/well) consisting of 20 mM HEPES, pH 7.2, 10 μM ATP, 5 mM MgCl2, 0.5 mM DTT, 0.1% BSA, and test compound (diluted in DMSO; 2.5% DMSO final in assay) was then added to the assay plate. Enzyme (10 ng/mL FAK, Invitrogen #PV3832) was added and the reaction was allowed to proceed at room temperature for 30 minutes. Detection of the phosphorylated product was performed by adding 100 μL/well of Eu—N1 labeled PY100 antibody (diluted 1:75000 in antibody dilution buffer). Samples were incubated at room temperature for 1 hour, followed by addition of 100 μL enhancement solution. Plates were agitated for 10 minutes and fluorescence of the resulting solution measured using the PerkinElmer EnVision™ 2102 (or 2104) multi-label plate reader.
(§1) Data analysis was performed using ActivityBase (IDBS, Guilford, UK). IC50 values were calculated by plotting percent inhibition versus log10 of the concentration of compound and fitting to the nonlinear regression sigmoidal dose-response (variable slope) equation in XLFit (IDBS, Guilford, UK).

The target in data set [2] is T2, baculovirus-expressed ALK (Homo sapiens, UniProt Q9UM73).
T2 construct: host or cells: baculovirus expression system
T2 sequence (Q9UM73 19-1620): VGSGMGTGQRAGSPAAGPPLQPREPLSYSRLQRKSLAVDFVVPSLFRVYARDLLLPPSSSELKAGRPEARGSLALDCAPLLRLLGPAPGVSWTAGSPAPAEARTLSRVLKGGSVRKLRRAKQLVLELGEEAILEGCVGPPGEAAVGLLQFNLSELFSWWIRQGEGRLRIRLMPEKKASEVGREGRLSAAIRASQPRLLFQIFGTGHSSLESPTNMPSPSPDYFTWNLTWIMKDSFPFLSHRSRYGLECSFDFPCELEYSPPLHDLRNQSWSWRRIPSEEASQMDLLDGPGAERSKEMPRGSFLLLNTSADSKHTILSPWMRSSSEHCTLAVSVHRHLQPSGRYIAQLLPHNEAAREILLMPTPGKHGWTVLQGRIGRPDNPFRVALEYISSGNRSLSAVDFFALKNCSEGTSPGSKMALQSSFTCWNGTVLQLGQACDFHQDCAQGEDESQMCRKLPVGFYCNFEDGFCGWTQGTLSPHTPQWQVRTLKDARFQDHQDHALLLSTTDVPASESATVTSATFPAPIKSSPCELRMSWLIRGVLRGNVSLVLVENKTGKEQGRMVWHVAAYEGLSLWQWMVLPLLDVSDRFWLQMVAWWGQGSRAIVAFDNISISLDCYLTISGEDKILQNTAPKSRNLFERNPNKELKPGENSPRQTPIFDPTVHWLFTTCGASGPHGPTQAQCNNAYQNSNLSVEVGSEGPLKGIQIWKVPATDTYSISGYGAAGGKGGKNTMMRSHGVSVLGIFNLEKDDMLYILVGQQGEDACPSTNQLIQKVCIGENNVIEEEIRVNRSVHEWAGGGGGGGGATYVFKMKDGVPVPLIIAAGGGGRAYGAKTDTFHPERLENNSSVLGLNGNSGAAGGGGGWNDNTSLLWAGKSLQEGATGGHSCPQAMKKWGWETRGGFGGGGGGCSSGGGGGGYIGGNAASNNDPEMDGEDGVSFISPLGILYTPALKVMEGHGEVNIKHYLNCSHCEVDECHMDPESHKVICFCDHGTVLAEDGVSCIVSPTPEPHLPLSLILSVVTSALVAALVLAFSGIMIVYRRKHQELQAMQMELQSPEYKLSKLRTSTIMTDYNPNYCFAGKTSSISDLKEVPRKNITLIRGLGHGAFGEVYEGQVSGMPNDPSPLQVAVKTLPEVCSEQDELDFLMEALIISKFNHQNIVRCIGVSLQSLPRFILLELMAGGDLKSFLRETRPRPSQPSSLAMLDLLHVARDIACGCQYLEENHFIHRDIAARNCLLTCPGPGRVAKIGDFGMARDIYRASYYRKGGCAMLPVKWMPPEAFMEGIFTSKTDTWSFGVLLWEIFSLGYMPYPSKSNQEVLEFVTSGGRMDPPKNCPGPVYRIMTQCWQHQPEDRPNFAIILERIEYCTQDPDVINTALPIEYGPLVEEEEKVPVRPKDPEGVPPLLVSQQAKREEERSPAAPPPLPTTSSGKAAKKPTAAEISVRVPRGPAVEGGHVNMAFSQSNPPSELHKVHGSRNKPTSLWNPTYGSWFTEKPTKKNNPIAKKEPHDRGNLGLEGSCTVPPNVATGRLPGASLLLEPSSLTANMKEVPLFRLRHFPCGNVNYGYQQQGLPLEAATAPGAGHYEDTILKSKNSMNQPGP
Kind of data set: ALK Kinase Assay (ELISA/TRF). The class given is biochemical. The settings on record: 1 μM ATP (Km level); average of two or more determinations; class symbols. On the procedure:
Briefly, each 96-well plate was coated with 100 μL/well of 10 μg/mL substrate (GST-PLC-γ) in Tris-buffered saline (TBS). […] The reaction was initiated by adding enzyme (30 ng/mL ALK) and was allowed to proceed at 37° C. for 15 minutes. Detection of the phosphorylated product was performed by adding 100 μL/well of Eu—N1 labeled PT66 antibody (Perkin Elmer #AD0041). […] Data analysis was performed using ActivityBase (IDBS, Guilford, UK). IC50 values were calculated by plotting percent inhibition versus log10 of the concentration of compound and fitting to the nonlinear regression sigmoidal dose-response (variable slope) equation in XLFit (IDBS, Guilford, UK).
On the technique in general: An ELISA detects its analyte on a solid surface through an enzyme-linked reagent.

In data set [3] the target is T3, baculovirus-expressed JAK2 (Homo sapiens, UniProt O60674).
T3 construct: host or cells: baculovirus expression system
T3 sequence (O60674 whole entry): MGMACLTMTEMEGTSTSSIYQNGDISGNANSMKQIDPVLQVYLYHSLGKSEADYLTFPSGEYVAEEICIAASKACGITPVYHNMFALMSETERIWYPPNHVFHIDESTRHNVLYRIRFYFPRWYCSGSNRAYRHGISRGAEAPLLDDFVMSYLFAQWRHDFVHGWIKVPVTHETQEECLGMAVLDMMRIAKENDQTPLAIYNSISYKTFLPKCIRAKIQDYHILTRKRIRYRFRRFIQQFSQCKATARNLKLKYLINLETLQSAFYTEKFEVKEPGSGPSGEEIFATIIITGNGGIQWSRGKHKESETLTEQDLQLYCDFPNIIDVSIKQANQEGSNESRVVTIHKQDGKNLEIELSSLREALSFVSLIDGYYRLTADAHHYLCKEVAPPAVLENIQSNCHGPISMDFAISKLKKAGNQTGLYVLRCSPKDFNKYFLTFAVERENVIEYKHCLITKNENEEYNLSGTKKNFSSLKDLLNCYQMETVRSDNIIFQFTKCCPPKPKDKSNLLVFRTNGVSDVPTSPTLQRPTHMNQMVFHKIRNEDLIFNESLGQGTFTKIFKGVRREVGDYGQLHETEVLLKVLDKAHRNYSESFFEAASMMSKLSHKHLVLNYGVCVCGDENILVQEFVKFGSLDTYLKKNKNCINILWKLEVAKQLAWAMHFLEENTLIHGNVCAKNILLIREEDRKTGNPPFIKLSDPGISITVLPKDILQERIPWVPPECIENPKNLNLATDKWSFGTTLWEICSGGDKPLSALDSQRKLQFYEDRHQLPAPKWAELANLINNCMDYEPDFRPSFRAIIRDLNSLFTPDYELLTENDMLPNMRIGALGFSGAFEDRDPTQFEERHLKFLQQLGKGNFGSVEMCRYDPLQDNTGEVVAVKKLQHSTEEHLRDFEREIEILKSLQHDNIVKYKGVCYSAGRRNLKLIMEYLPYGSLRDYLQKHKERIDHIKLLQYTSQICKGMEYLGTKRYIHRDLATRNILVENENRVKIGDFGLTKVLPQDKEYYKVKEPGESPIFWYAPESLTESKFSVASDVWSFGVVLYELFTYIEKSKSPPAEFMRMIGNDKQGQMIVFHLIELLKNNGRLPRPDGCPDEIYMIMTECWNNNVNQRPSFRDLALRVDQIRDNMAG
Kind of data set: JAK2 Kinase Assay (TRF detection). The class given is biochemical. As to conditions: 0.2 μM ATP; average of two or more determinations; class symbols. The procedure: Compounds were tested for their ability to inhibit the kinase activity of baculovirus-expressed JAK2 using the TRF detection system. IC50 runs were conducted in 96-well Costar high binding plates (Corning Costar #3922, Corning, N.Y.). The plates were coated first with 100 μL/well of 10 μg/mL Neutravidin (Pierce #31000, Rockford, Ill.) in TBS at 37° C. for 2 hours, followed by 100 μL/well of 1 μg/mL 15-mer peptide substrate (biotinyl-amino-hexanoyl-EQEDEPEGDYFEWLE-amide, Infinity Biotech Research and Resource, Aston, Pa.) at 37° C. for another hour. The JAK2 assay mixture (total volume=100 μL/well) consisting of 20 mM HEPES, pH 7.2, 0.2 μM ATP, 1 mM MnCl2, 0.1% BSA, and test compound (diluted in DMSO; 2.5% DMSO final in assay) was then added to the assay plate. Enzyme (15 ng/ml JAK2) was added and the reaction was allowed to proceed at room temperature for 20 minutes. Detection of the phosphorylated product was performed by adding 100 μL/well of Eu—N1 labeled PY100 antibody (PerkinElmer Life Sciences #AD0041, Boston, Mass.). Incubation at the room temperature then proceeded for 1 hour, followed by addition of 100 μl enhancement solution (PerkinElmer Life Sciences #1244-105, Boston, Mass.). The plate was gently agitated and after thirty minutes, the fluorescence of the resulting solution was measured using the PerkinElmer EnVision™ 2102 (or 2104) multi-label plate reader.
as §1

Data set [4] addresses T4, human insulin receptor cytoplasmic domain (βIRCD) (Homo sapiens, UniProt P06213).
T4 construct: human insulin receptor cytoplasmic domain (βIRCD); host or cells: baculovirus expression system
Briefly: Insulin Receptor Kinase Assay (TRF). It is filed as biochemical. The settings on record: 20 μM ATP, read-out: IR IC50. The procedure:
Example compounds were tested for their ability to inhibit the kinase activity of baculovirus-expressed human insulin receptor cytoplasmic domain (βIRCD) using the TRF assay as described above for ALK. Phosphorylation of the substrate, recombinant GST-PLC-γ, was detected with a europium-labeled anti-phosphotyrosine antibody and measured by TRF. Each 96-well plate (Greiner#655074) was coated with 100 μL/well of 20 μg/mL substrate solution in TBS. The IR assay mixture (total volume=100 μL/well) consisting of 20 mM HEPES (pH 7.2), 20 μM ATP, 5 mM MnCl2, 0.1% BSA, and test compound (diluted in DMSO; 2.5% DMSO final in assay) was added to the assay plates. Enzyme (20 ng/mL βIRCD) was added and the reaction was allowed to proceed at room temperature for 20 minutes. Detection of the phosphorylated product was performed by adding 100 μL/well of Eu—N1 labeled PY100 antibody (PerkinElmer#AD0160; diluted 1:10,000 in TBS-T containing 0.25% BSA). Incubation at 37° C. for 1 hour was followed by addition of 50 μL enhancement solution (Wallace#1244-105). Plates were agitated for 10 minutes and the fluorescence was measured using the PerkinElmer EnVision™ 2102 or 2104 multi-label plate reader.
as §1

Where [5] appears, read: average of two or more determinations, class symbols.

T4 sequence (P06213 980-1382 limits assumed): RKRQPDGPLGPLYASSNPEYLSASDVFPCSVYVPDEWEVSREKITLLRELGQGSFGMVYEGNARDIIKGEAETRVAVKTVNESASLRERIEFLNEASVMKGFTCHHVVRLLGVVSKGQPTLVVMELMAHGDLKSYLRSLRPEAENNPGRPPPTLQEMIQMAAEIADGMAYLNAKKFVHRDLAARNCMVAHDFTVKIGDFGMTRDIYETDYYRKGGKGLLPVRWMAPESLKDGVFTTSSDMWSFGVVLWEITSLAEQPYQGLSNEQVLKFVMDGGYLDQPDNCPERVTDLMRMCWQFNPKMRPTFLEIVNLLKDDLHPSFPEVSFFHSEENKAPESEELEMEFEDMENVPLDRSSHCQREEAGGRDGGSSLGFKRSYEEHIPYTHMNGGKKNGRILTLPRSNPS

The IC50 is the point on the concentration scale where inhibition reaches its midpoint. With `CN1CCN(c2ccc3cc2/C=C\c2ccc(N(C)S(C)(=O)=O)c(c2)Nc2nc(ncc2Cl)N3)CC1` [Example 9, (14Z)-6-Chloro-10-(2-methanesulfonyl-methyl-amino)-17-(4-methylpiperazin-1-yl)-2,4,8,22-tetraazatetracyclo[14.3.1.1^3,7.1^9,13]docosa-1(20),3(22),4,6,9(21),10,12,14,16,18-decaene Trifluoroacetate (1:1)], the ring closure, yield of all isomers in data set [1] (from C=Cc1cc(Nc2ncc(Cl)c(Nc3cc(Br)ccc3N(C)S(C)(=O)=O)n2)ccc1N1CCN(C)CC1, 65.0 mM, 2.75 h) came out at 37%. In addition, the IC50 is under 10 nM at recombinant human FAK (setting [5]), 10 to 100 nM in data set [2], under 10 nM in data set [3] and over 2000 nM in data set [4] (given as numeric bound).
One may read the melting point as the temperature, or range, at which the solid turns liquid. Compound `CC(C)S(=O)(=O)c1ccc2cc1Nc1nc(ncc1Cl)Nc1ccc(N3CCN(C)CC3)c(c1)CC2` [Example 12, 6-Chloro-10-(propane-2-sulfonyl)-17-(4-methylpiperazin-1-yl)-2,4,8,22-tetraazatetracyclo[14.3.1.1^3,7.1^9,13]docosa-1(20),3(22),4,6,9(21),10,12,16,18-nonaene] came in with a melting point of over 250 °C. Besides, the IC50 at recombinant human FAK (setting [5]) is under 10 nM. The IC50 in data set [3] is under 10 nM. Also, in data set [4] (setting [5]), the IC50 was 10 to 100 nM.
`COc1cc(N2CCN(C)CC2)c2cc1Nc1ncc(Cl)c(n1)Nc1cc(ccc1N(C)S(C)(=O)=O)/C=C\2` [Example 4, (14Z)-6-Chloro-10-(2-methanesulfonyl-methyl-amino)-17-(4-methylpiperazin-1-yl)-19-methoxy-2,4,8,22-tetraazatetracyclo[14.3.1.1^3,7.1^9,13]docosa-1(20),3(22),4,6,9(21),10,12,14,16,18-decaene] registered a melting point of 278 to 280 °C. For the same compound, the ring closure, yield of all isomers in data set [1] (from C=Cc1ccc(N(C)S(C)(=O)=O)c(Nc2nc(Nc3cc(Br)c(N4CCN(C)CC4)cc3OC)ncc2Cl)c1, 46.7 mM, 0.25 h) came to 72%. The IC50 on recombinant human FAK (setting [5]) was under 10 nM. The concentration for half-maximal inhibition (IC50) at recombinant human FAK (given as numeric bound) was over 3000 nM. The IC50 in data set [4] (setting [5]) lay in the range of 1000 to 10000 nM. Also, in data set [4] (given as numeric bound), the half-inhibitory concentration (IC50) was over 2000 nM.
Regarding `COc1cc(C2CCN(C)CC2)c2cc1Nc1ncc(Cl)c(n1)Nc1cc(ccc1N(C)S(C)(=O)=O)/C=C\2` [Example 7, (14Z)-6-Chloro-10-(2-methanesulfonyl-methyl-amino)-17-(1-methyl-piperidin-4-yl)-19-methoxy-2,4,8,22-tetraazatetracyclo[14.3.1.1^3,7.1^9,13]docosa-1(20),3(22),4,6,9(21),10,12,14,16,18-decaene], the melting point lay within 244 to 246 °C. Moreover, at recombinant human FAK (setting [5]), the IC50 was under 10 nM. Moreover, the IC50 in data set [2] was 10 to 100 nM. The compound further displayed an IC50 in data set [3] of 1000 to 10000 nM. Further, the IC50 in data set [4] (given as numeric bound) is over 2000 nM.
For `CN1CCN(c2ccc3cc2CCc2ccc(S(C)(=O)=O)c(c2)Nc2nc(ncc2Cl)N3)CC1` [Example 19, 6-Chloro-10-(methanesulfonyl)-17-(4-methylpiperazin-1-yl)-2,4,8,22-tetraazatetracyclo[14.3.1.1^3,7.1^9,13]docosa-1(20),3(22),4,6,9(21),10,12,16,18-nonaene], the melting point is over 250 °C. On recombinant human FAK (setting [5]), the IC50 was in the range of 10 to 100 nM. Besides, the IC50 in data set [2] lay within 10 to 100 nM. Moreover, the IC50 in data set [3] lay within 10 to 100 nM. For the same compound, in data set [4] (setting [5]), the IC50 lay within 101 to 1000 nM.
